For test [1], the target named is T1, S. aureus Uridine-diphosphate-N-acetvimuramoyl: L-alanine lipase, MurC (Staphylococcus aureus, UniProt Q2FXJ0).
T1 sequence (Q2FXJ0 1-437): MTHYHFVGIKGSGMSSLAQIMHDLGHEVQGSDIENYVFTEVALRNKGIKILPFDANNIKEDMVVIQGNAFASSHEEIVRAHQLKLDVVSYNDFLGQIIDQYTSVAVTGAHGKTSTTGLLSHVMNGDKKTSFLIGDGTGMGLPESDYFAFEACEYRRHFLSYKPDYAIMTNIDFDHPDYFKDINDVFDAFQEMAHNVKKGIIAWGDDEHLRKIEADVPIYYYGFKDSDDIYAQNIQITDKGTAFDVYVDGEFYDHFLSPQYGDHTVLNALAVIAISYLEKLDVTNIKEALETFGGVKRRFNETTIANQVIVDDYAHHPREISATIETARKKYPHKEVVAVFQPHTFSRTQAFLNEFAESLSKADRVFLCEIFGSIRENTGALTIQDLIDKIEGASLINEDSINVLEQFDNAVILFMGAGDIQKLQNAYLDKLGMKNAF
As to the kind of experiment: biochemical. As to conditions: (S) S. aureus enzyme; for IC50: read-out: MurC IC50 (converted). A digest of the protocol: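 MurC assay: enzyme (E. coli 100 μg/mL, S. aureus 70 μg/mL stock) with L-Ala and test compound, pre-incubated 10 min at 23 °C, then UDP-MurNac added, 10 min at 37 °C. Phosphate released detected by malachite green–molybdate at 660 nm; IC50 by linear regression.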

Test [2] addresses T2, S. aureus Uridine-diphosphate-N-acetylmuramoyl-L-alanine: D-glutamate liease, MurD (Staphylococcus aureus, UniProt Q2FZ92).
T2 sequence (Q2FZ92 1-449): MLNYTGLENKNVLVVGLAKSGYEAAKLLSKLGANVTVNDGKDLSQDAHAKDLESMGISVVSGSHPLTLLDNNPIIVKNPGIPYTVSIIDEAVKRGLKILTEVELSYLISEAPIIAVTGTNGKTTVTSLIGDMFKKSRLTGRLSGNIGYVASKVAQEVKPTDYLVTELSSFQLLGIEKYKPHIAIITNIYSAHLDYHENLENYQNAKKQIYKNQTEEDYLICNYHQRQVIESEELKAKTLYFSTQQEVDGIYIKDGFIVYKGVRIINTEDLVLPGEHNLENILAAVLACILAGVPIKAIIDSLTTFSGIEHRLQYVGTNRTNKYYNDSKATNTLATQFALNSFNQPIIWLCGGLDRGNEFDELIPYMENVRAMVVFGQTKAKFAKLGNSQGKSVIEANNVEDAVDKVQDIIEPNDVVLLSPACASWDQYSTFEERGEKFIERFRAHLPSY
The test can be described thus: biochemical. As to conditions: (S) S. aureus enzyme. A digest of the protocol:
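MurD, which catalyses the fourth step of cell wall biosynthesis, was tested for inhibition by compounds. Compounds were made up as 10 mg/mL DMSO stocks and diluted to 100 μg/mL in 50 mM Tris/HCl, pH 8.5.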

In a further test the test system is enterococci. The test can be described thus: Minimum inhibitory concentration, microdilution broth method, enterococci. It counts as cell-based. As to conditions: Mueller-Hinton broth, 18-22 hours at 35° C.; for MIC: Enterococcus faecalis. Summed up: (§1)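 Recent clinical isolates, some resistant to methicillin, penicillin and/or vancomycin, were tested by the broth microdilution method of NCCLS Approved Standard M7-A5 2000. Mueller-Hinton broth served for staphylococci and enterococci, while streptococci received the same broth supplemented with 5% horse blood.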

Another test deals with Streptococci. As to the kind of experiment: Minimum inhibitory concentration, microdilution broth method, streptococci. It counts as cell-based. The settings on record: Mueller-Hinton broth with 5% horse blood, 18-22 hours at 35° C.; for MIC: S. pneumo GC 1894. Summed up:
as §1
(Broth dilution looks for growth in wells or tubes with falling amounts of substance.)

Setting [3] is: E. faecalis GC 2242, read-out: MIC E. faecalis GC 2242.
Where [4] appears, read: E. faecalis GC 4555, read-out: MIC E. faecalis GC 4555.

Converted amounts (≈) assume the structure as drawn. Read-outs that look alike come from different tables or passages of the source. Where only a bound is given, the exact number is not on record here.

Broadly, the IC50 is the concentration needed to halve the response being measured. By MIC is commonly meant the lowest concentration that inhibits growth of the organism. With `COC(=O)c1ccc(C2=C(O)/C(=C/c3cccc4ccccc34)OC2=O)cc1` [Example 74], the results for the IC50 in test [1] and in test [2] were 48.3 µM and > 67.1 µM, respectively. In addition, the results for the minimum inhibitory concentration (MIC) with enterococci (setting [3]), in the test on enterococci (setting [4]) and in the test on Streptococci were > 128 µg/mL, > 128 µg/mL and 32 µg/mL (≈ 85.9 µM), respectively.
For `CCOC(=O)c1cccc(C2=C(O)C(=Cc3cccc4ccccc34)OC2=O)c1` [Example 75], the “MurC IC50” value in test [1] was determined as 20 µg/mL. The “MurD IC50” value in test [2] is recorded as >25 (E); >25 (S) μg/mL. Besides, in the test with enterococci (E. faecalis GC 2242), the “MIC E. faecalis GC 2242” value was >128 µg/mL. Besides, in the test on enterococci (E. faecalis GC 4555), the “MIC E. faecalis GC 4555” value is 64 µg/mL (≈ 166 µM). Also, in the test with Streptococci, the “MIC S. pneumo GC 1894” value was determined as 32 µg/mL (≈ 82.8 µM).
Turning to `O=Cc1cccc(C2=C(O)/C(=C/c3cccc4ccccc34)OC2=O)c1` [Example 76], the half-maximal inhibitory concentration (IC50) was 52.6 µM in test [1] and > 73 µM in test [2]. Also, the figures for the minimal inhibitory concentration (MIC) with enterococci (setting [3]), in the test on enterococci (setting [4]) and in the test on Streptococci were > 128 µg/mL, > 128 µg/mL and 64 µg/mL (≈ 187 µM), respectively.
As for `O=C1O/C(=C\c2cccc3ccccc23)C(O)=C1c1cccc(C=NO)c1` [Example 77], the “MurC IC50” value in test [1] amounted to 15 µg/mL. The “MurD IC50” value in test [2] is >25 (S) μg/mL. Further, in the test on enterococci (E. faecalis GC 2242), the “MIC E. faecalis GC 2242” value is >128 µg/mL. For the same compound, the “MIC E. faecalis GC 4555” value in the test with enterococci (E. faecalis GC 4555) is >128 µg/mL. Moreover, the “MIC S. pneumo GC 1894” value in the test on Streptococci is 64 µg/mL (≈ 179 µM).
In the case of `CN(C)c1ccc(/C=C2\OC(=O)C(c3ccc(Cl)cc3)=C2O)c2ccccc12` [Example 78], the 50% inhibitory concentration (IC50) in test [1] is 53.6 µM; in test [2], > 63.8 µM. Further, the values for the minimal inhibitory concentration (MIC) in the test on enterococci (setting [3]), in the test on enterococci (setting [4]) and in the test on Streptococci were 64 µg/mL (≈ 163 µM), 64 µg/mL (≈ 163 µM) and 2 µg/mL (≈ 5.1 µM), respectively.
As to `CN(C)c1ccc(/C=C2\OC(=O)C(c3cc(Cl)cc(Cl)c3)=C2O)c2ccccc12` [Example 79], the IC50 is 56.3 µM in test [1] and 32.8 µM in test [2]. For the same compound, the results for the MIC with enterococci (setting [3]), in the test on enterococci (setting [4]) and against Streptococci were 4 µg/mL (≈ 9.38 µM), 8 µg/mL (≈ 18.8 µM) and 0.5 µg/mL (≈ 1.17 µM), respectively.
On to `CN(C)c1ccc(C=C2OC(=O)C(c3cc(Cl)cc(Cl)c3)=C2O)c2ccccc12` [Example 80], for which the “MurC IC50” value in test [1] was 18 (S) μg/mL. In addition, in test [2], the “MurD IC50” value is listed as 13 (S) μg/mL. Besides, the “MIC E. faecalis GC 2242” value in the test with enterococci (E. faecalis GC 2242) was found to be 4 µg/mL (≈ 9.38 µM). Also, the “MIC E. faecalis GC 4555” value with enterococci (E. faecalis GC 4555) came to 8 µg/mL (≈ 18.8 µM). The “MIC S. pneumo GC 1894” value in the test on Streptococci was determined as 1 µg/mL (≈ 2.35 µM).
As for `CN(C)c1ccc(/C=C2\OC(=O)C(c3ccc(C(F)(F)F)cc3)=C2O)c2ccccc12` [Example 81], the IC50 is 37.6 µM in test [1] and > 58.8 µM in test [2]. The MIC in the test with enterococci (setting [3]) was 16 µg/mL (≈ 37.6 µM); in the test on enterococci (setting [4]) it was 32 µg/mL (≈ 75.2 µM); against Streptococci, 1 µg/mL (≈ 2.35 µM).
The like results for `O=C1O/C(=C\C2CCCCC2)C(O)=C1c1ccc(-c2ccccc2)cc1` [Example 100] were, in that order, 46.2 µM, 69.3 µM, > 128 µg/mL, > 128 µg/mL and 64 µg/mL (≈ 185 µM).
The like results for `O=C1O/C(=C\c2cccnc2)C(O)=C1c1ccc(-c2ccccc2)cc1` [Example 101] were, in that order, 67.4 µM, > 73.2 µM, 64 µg/mL (≈ 187 µM), > 128 µg/mL and 64 µg/mL (≈ 187 µM).
The like results for `Cc1ccc(/C=C2\OC(=O)C(c3ccc(-c4ccccc4)cc3)=C2O)s1` [Example 104] were, in that order, 52.7 µM, > 69.4 µM, 32 µg/mL (≈ 88.8 µM), 64 µg/mL (≈ 178 µM) and 0.5 µg/mL (≈ 1.39 µM).
For `O=C1O/C(=C\c2cccc(C(F)(F)F)c2)C(O)=C1c1ccc(-c2ccccc2)c(F)c1` [Example 106], the IC50 was 28.1 µM in test [1] and 37.5 µM in test [2]. Also, the MIC in the test on enterococci (setting [3]) stood at 0.25 µg/mL (≈ 0.586 µM); in the test on enterococci (setting [4]), 1 µg/mL (≈ 2.35 µM); in the test on Streptococci, 0.25 µg/mL (≈ 0.586 µM).
Regarding `O=C1O/C(=C\c2cccc(-c3cccc(Cl)c3)c2)C(O)=C1c1cccc(Cl)c1` [Example 134], the half-maximal inhibitory concentration (IC50) in test [1] is 51.3 µM; in test [2], 19.5 µM. The MIC in the test on enterococci (setting [3]) came to 4 µg/mL (≈ 9.77 µM); in the test on enterococci (setting [4]), 8 µg/mL (≈ 19.5 µM); in the test on Streptococci, 1 µg/mL (≈ 2.44 µM).
